From PMC5218480 (PLoS ONE, 2017)

Test system: MV-4-11 cells
Test: Gene expression microarray analysis (Affymetrix PrimeView) and GSEA
Type: cell-based, human
Parameters: RFU PODN (11730768_x_at) / Fold change /veh PODN (11730768_x_at) / RFU LINC00158 (11744669_a_at) / Fold change /veh LINC00158 (11744669_a_at) / RFU DUSP10 (11751237_a_at) / Fold change /veh DUSP10 (11751237_a_at) / RFU ID3 (11757404_x_at) / Fold change /veh ID3 (11757404_x_at) / RFU PLEKHG5 (11737974_s_at) / Fold change /veh PLEKHG5 (11737974_s_at) / RFU LRRC4B (11730491_at) / Fold change /veh LRRC4B (11730491_at) / RFU GIMAP4 (11747438_a_at) / Fold change /veh GIMAP4 (11747438_a_at) / RFU KRT8 (11758183_x_at) / Fold change /veh KRT8 (11758183_x_at) / RFU CNN1 (11734310_a_at) / Fold change /veh CNN1 (11734310_a_at) / RFU VPS37D (11726825_at) / Fold change /veh VPS37D (11726825_at) / RFU C10orf10 (11716522_x_at) / Fold change /veh C10orf10 (11716522_x_at) / RFU KIR2DL2 /// KIR2DL4 /// KIR2DL5A /// KIR2DL5B /// KIR2DS1 /// KIR2DS2 /// KIR2DS3 /// KIR2DS4 /// KIR3DL3 /// KIR3DL3 /// KIR3DS1 (11738374_at) / Fold change /veh KIR2DL2 /// KIR2DL4 /// KIR2DL5A /// KIR2DL5B /// KIR2DS1 /// KIR2DS2 /// KIR2DS3 /// KIR2DS4 /// KIR3DL3 /// KIR3DL3 /// KIR3DS1 (11738374_at) / RFU C1QL1 (11718748_at) / Fold change /veh C1QL1 (11718748_at) / RFU TMPRSS4 (11747572_a_at) / Fold change /veh TMPRSS4 (11747572_a_at) / RFU HAMP (11756126_x_at) / Fold change /veh HAMP (11756126_x_at) / RFU RNFT2 (11725882_a_at) / Fold change /veh RNFT2 (11725882_a_at) / RFU NR4A2 (11747474_a_at) / Fold change /veh NR4A2 (11747474_a_at) / RFU ABCC12 (11746883_a_at) / Fold change /veh ABCC12 (11746883_a_at) / RFU TMEM136 (11760407_x_at) / Fold change /veh TMEM136 (11760407_x_at) / RFU CLDN22 /// WWC2 (11732394_at) / Fold change /veh CLDN22 /// WWC2 (11732394_at) / RFU HLA-DPB1 (11760878_x_at) / Fold change /veh HLA-DPB1 (11760878_x_at) / RFU SPINT1 (11716480_a_at) / Fold change /veh SPINT1 (11716480_a_at) / RFU GAP43 (11754022_s_at) / Fold change /veh GAP43 (11754022_s_at) / RFU A4GNT (11735810_at) / Fold change /veh A4GNT (11735810_at) / RFU PRB3 (11715151_x_at) / Fold change /veh PRB3 (11715151_x_at) / RFU TUBB4B (11761932_at) / Fold change /veh TUBB4B (11761932_at) / RFU CAPN14 (11732068_a_at) / Fold change /veh CAPN14 (11732068_a_at) / RFU TMCC2 (11721928_a_at) / Fold change /veh TMCC2 (11721928_a_at) / RFU IRGQ (11745062_a_at) / Fold change /veh IRGQ (11745062_a_at) / RFU FAM174B (11720279_a_at) / Fold change /veh FAM174B (11720279_a_at) / RFU TMPRSS4 (11748680_a_at) / Fold change /veh TMPRSS4 (11748680_a_at) / RFU FAM212B (11763350_a_at) / Fold change /veh FAM212B (11763350_a_at) / RFU PLEKHG5 (11743358_a_at) / Fold change /veh PLEKHG5 (11743358_a_at) / RFU ZSCAN30 (11745921_a_at) / Fold change /veh ZSCAN30 (11745921_a_at) / RFU CMKLR1 (11741424_a_at) / Fold change /veh CMKLR1 (11741424_a_at) / RFU LOC101060620 /// MAPK8IP1 (11723275_at) / Fold change /veh LOC101060620 /// MAPK8IP1 (11723275_at) / RFU SPTSSB (11747773_x_at) / Fold change /veh SPTSSB (11747773_x_at) / RFU PRSS12 (11739890_at) / Fold change /veh PRSS12 (11739890_at) / RFU BIN1 (11741810_x_at) / Fold change /veh BIN1 (11741810_x_at) / RFU WNT11 (11732464_a_at) / Fold change /veh WNT11 (11732464_a_at) / RFU C10orf10 (11716521_a_at) / Fold change /veh C10orf10 (11716521_a_at) / RFU C5orf56 (11738089_at) / Fold change /veh C5orf56 (11738089_at) / RFU CYB561 (11721691_x_at) / Fold change /veh CYB561 (11721691_x_at) / RFU ANKRD19P (11752326_a_at) / Fold change /veh ANKRD19P (11752326_a_at) / RFU OR2T12 /// OR2T33 /// OR2T8 (11738714_s_at) / Fold change /veh OR2T12 /// OR2T33 /// OR2T8 (11738714_s_at) / RFU VCAN (11748164_a_at) / Fold change /veh VCAN (11748164_a_at) / RFU JSRP1 (11732532_at) / Fold change /veh JSRP1 (11732532_at) / RFU KRTAP10-11 (11738290_x_at) / Fold change /veh KRTAP10-11 (11738290_x_at) / RFU MYO3A (11730013_a_at) / Fold change /veh MYO3A (11730013_a_at) / RFU EBF3 (11725865_a_at) / Fold change /veh EBF3 (11725865_a_at) / RFU CAMK2N1 (11719241_x_at) / Fold change /veh CAMK2N1 (11719241_x_at) / RFU C5orf56 (11738088_a_at) / Fold change /veh C5orf56 (11738088_a_at) / RFU OLFML3 (11715873_a_at) / Fold change /veh OLFML3 (11715873_a_at) / RFU LOC100653217 /// NTM (11731650_a_at) / Fold change /veh LOC100653217 /// NTM (11731650_a_at) / RFU MAPK11 (11762145_a_at) / Fold change /veh MAPK11 (11762145_a_at) / RFU FIZ1 (11724087_x_at) / Fold change /veh FIZ1 (11724087_x_at) / RFU OASL (11726364_x_at) / Fold change /veh OASL (11726364_x_at) / RFU SOX15 (11748057_x_at) / Fold change /veh SOX15 (11748057_x_at) / RFU CD79A (11719716_a_at) / Fold change /veh CD79A (11719716_a_at) / RFU HIST1H1D (11736915_at) / Fold change /veh HIST1H1D (11736915_at) / RFU CASKIN2 (11723855_a_at) / Fold change /veh CASKIN2 (11723855_a_at) / RFU LOC730098 (11760151_x_at) / Fold change /veh LOC730098 (11760151_x_at) / RFU OR4N2 (11742367_at) / Fold change /veh OR4N2 (11742367_at) / RFU PRRT2 (11749266_a_at) / Fold change /veh PRRT2 (11749266_a_at) / RFU SNX32 (11753110_a_at) / Fold change /veh SNX32 (11753110_a_at) / RFU CDHR5 (11726645_a_at) / Fold change /veh CDHR5 (11726645_a_at) / RFU RCAN1 (11760418_a_at) / Fold change /veh RCAN1 (11760418_a_at) / RFU FAM167A (11723789_a_at) / Fold change /veh FAM167A (11723789_a_at) / RFU FAM26E (11764081_at) / Fold change /veh FAM26E (11764081_at) / RFU ISYNA1 (11749810_s_at) / Fold change /veh ISYNA1 (11749810_s_at) / RFU ACY1 (11761880_at) / Fold change /veh ACY1 (11761880_at) / RFU 11764098_at / Fold change /veh 11764098_at / RFU SAMD14 (11745864_x_at) / Fold change /veh SAMD14 (11745864_x_at) / RFU NPB (11741838_a_at) / Fold change /veh NPB (11741838_a_at) / RFU TMPRSS6 (11731388_a_at) / Fold change /veh TMPRSS6 (11731388_a_at) / RFU KRTAP10-2 (11738614_at) / Fold change /veh KRTAP10-2 (11738614_at) / RFU ARHGAP8 /// PRR5-ARHGAP8 (11727945_x_at) / Fold change /veh ARHGAP8 /// PRR5-ARHGAP8 (11727945_x_at) / RFU KRTAP5-7 /// NADSYN1 (11734609_at) / Fold change /veh KRTAP5-7 /// NADSYN1 (11734609_at) / RFU RASL12 (11751679_a_at) / Fold change /veh RASL12 (11751679_a_at) / RFU CDKN2B (11736163_a_at) / Fold change /veh CDKN2B (11736163_a_at) / RFU PRF1 (11729649_at) / Fold change /veh PRF1 (11729649_at) / RFU, ZNF638 /// ZNF638-IT1 / Fold change vs veh, ZNF638 /// ZNF638-IT1 / RFU, PANK3 / Fold change vs veh, PANK3 / RFU, SH3YL1 / Fold change vs veh, SH3YL1 / RFU, ZEB2 / Fold change vs veh, ZEB2 / RFU, NRIP1 / Fold change vs veh, NRIP1 / RFU, PTTG1IP / Fold change vs veh, PTTG1IP / RFU, CAPN2 / Fold change vs veh, CAPN2 / RFU, MED14 / Fold change vs veh, MED14 / RFU, SNORA58 / Fold change vs veh, SNORA58 / RFU, C1orf63 / Fold change vs veh, C1orf63 / RFU, LRRFIP1 / Fold change vs veh, LRRFIP1 / RFU, NDUFAF7 / Fold change vs veh, NDUFAF7 / RFU, SLC12A2 / Fold change vs veh, SLC12A2 / RFU, IBTK / Fold change vs veh, IBTK / RFU, ESF1 / Fold change vs veh, ESF1 / Fold change vs veh, TMEM50B / RFU, TAOK1 / Fold change vs veh, TAOK1 / RFU, ACBD3 / Fold change vs veh, ACBD3 / RFU, TMA16 / Fold change vs veh, TMA16 / RFU, RWDD3 / Fold change vs veh, RWDD3 / RFU, BCAT1 / Fold change vs veh, BCAT1 / RFU, EDEM3 / Fold change vs veh, EDEM3 / RFU, TMEM33 / Fold change vs veh, TMEM33 / RFU, WDR75 / Fold change vs veh, WDR75 / RFU, AHCTF1 / Fold change vs veh, AHCTF1 / RFU, TFRC / Fold change vs veh, TFRC / RFU, ZDHHC17 / Fold change vs veh, ZDHHC17 / RFU, NOM1 / Fold change vs veh, NOM1 / RFU, ARL8B / Fold change vs veh, ARL8B / RFU, ZBTB11 / Fold change vs veh, ZBTB11 / RFU, TAMM41 / Fold change vs veh, TAMM41 / RFU, KIAA1704 /// LOC100996395 / Fold change vs veh, KIAA1704 /// LOC100996395 / RFU, ING1 / Fold change vs veh, ING1 / RFU, TRMT61B / Fold change vs veh, TRMT61B / RFU, FUBP3 / Fold change vs veh, FUBP3 / RFU, TP53 / Fold change vs veh, TP53 / RFU, TNKS2 / Fold change vs veh, TNKS2 / RFU, ZFP14 / Fold change vs veh, ZFP14 / RFU, ACTR2 / Fold change vs veh, ACTR2 / RFU, PPP3R1 / Fold change vs veh, PPP3R1 / RFU, PIK3R1 / Fold change vs veh, PIK3R1 / RFU, HNRNPA1 / Fold change vs veh, HNRNPA1 / RFU, RNF170 / Fold change vs veh, RNF170 / RFU, ZNF28 / Fold change vs veh, ZNF28 / RFU, RNGTT / Fold change vs veh, RNGTT / RFU, OGT / Fold change vs veh, OGT / RFU, BRD1 / Fold change vs veh, BRD1 / RFU, MARS / Fold change vs veh, MARS / RFU, ZNF655 / Fold change vs veh, ZNF655 / RFU, FAHD1 / Fold change vs veh, FAHD1 / RFU, BDP1 / Fold change vs veh, BDP1 / RFU, LRRCC1 / Fold change vs veh, LRRCC1 / RFU, ARID1A / Fold change vs veh, ARID1A / RFU, ZNF146 / Fold change vs veh, ZNF146 / RFU, ZNF330 / Fold change vs veh, ZNF330 / RFU, GPN3 / Fold change vs veh, GPN3 / RFU, C9orf123 / Fold change vs veh, C9orf123 / RFU, N4BP2L2 / Fold change vs veh, N4BP2L2 / RFU, ARFIP1 / Fold change vs veh, ARFIP1 / RFU, FAM179B / Fold change vs veh, FAM179B / RFU, BCL10 / Fold change vs veh, BCL10 / RFU, UHRF1BP1L / Fold change vs veh, UHRF1BP1L / RFU, BET1 / Fold change vs veh, BET1 / RFU, CNOT2 / Fold change vs veh, CNOT2 / RFU, ZNF268 / Fold change vs veh, ZNF268 / Fold change vs veh, ZNF507 / RFU, DGCR2 / Fold change vs veh, DGCR2 / RFU, WDSUB1 / Fold change vs veh, WDSUB1 / Fold change vs veh, HSP90B1 /// MIR3652 / RFU, ADSS / Fold change vs veh, ADSS / RFU, GK / Fold change vs veh, GK / RFU, ZNF148 / Fold change vs veh, ZNF148 / RFU, TAF9 / Fold change vs veh, TAF9 / RFU, SLC1A5 / Fold change vs veh, SLC1A5 / RFU, SLMO2 / Fold change vs veh, SLMO2 / RFU, ABCC4 / Fold change vs veh, ABCC4 / RFU, LOC101060439 /// RAP1B / Fold change vs veh, LOC101060439 /// RAP1B / RFU, RFX7 / Fold change vs veh, RFX7 / RFU, GTPBP10 / Fold change vs veh, GTPBP10 / RFU, CNEP1R1 / Fold change vs veh, CNEP1R1 / RFU, BIVM-ERCC5 /// ERCC5 / Fold change vs veh, BIVM-ERCC5 /// ERCC5 / RFU, ILF3 / Fold change vs veh, ILF3 / RFU 11762660_at / Fold change /veh 11762660_at / RFU VCAN (11757783_s_at) / Fold change /veh VCAN (11757783_s_at) / RFU DDX43 (11728927_at) / Fold change /veh DDX43 (11728927_at) / RFU KRT8 (11758188_x_at) / Fold change /veh KRT8 (11758188_x_at) / RFU NKD1 (11759106_at) / Fold change /veh NKD1 (11759106_at) / RFU SRD5A1 (11742802_a_at) / Fold change /veh SRD5A1 (11742802_a_at) / RFU TPSAB1 /// TPSB2 (11721975_s_at) / Fold change /veh TPSAB1 /// TPSB2 (11721975_s_at) / RFU GSTM3 (11746129_a_at) / Fold change /veh GSTM3 (11746129_a_at) / RFU IL23R (11737362_x_at) / Fold change /veh IL23R (11737362_x_at) / RFU TMEM51 (11727254_a_at) / Fold change /veh TMEM51 (11727254_a_at) / RFU PIWIL2 (11732686_x_at) / Fold change /veh PIWIL2 (11732686_x_at) / RFU ORM1 (11744905_x_at) / Fold change /veh ORM1 (11744905_x_at) / RFU CCDC152 (11743942_at) / Fold change /veh CCDC152 (11743942_at) / RFU ECM1 (11717891_a_at) / Fold change /veh ECM1 (11717891_a_at) / RFU IL23R (11748794_a_at) / Fold change /veh IL23R (11748794_a_at) / RFU TNFAIP8L3 (11732012_x_at) / Fold change /veh TNFAIP8L3 (11732012_x_at) / RFU MBOAT4 (11741988_at) / Fold change /veh MBOAT4 (11741988_at) / RFU 11764193_at / Fold change /veh 11764193_at / RFU TMEM53 (11763286_at) / Fold change /veh TMEM53 (11763286_at) / RFU MAGEB2 (11727129_at) / Fold change /veh MAGEB2 (11727129_at) / RFU TMEM200A (11744735_a_at) / Fold change /veh TMEM200A (11744735_a_at) / RFU CCDC152 (11751479_a_at) / Fold change /veh CCDC152 (11751479_a_at) / RFU FAM211A (11726209_a_at) / Fold change /veh FAM211A (11726209_a_at) / RFU RGS16 (11746705_a_at) / Fold change /veh RGS16 (11746705_a_at) / RFU VCAN (11755009_s_at) / Fold change /veh VCAN (11755009_s_at) / RFU RHOB (11743442_s_at) / Fold change /veh RHOB (11743442_s_at) / RFU RGS16 (11720943_a_at) / Fold change /veh RGS16 (11720943_a_at) / RFU RGS16 (11720944_at) / Fold change /veh RGS16 (11720944_at) / RFU, VPS4B / Fold change vs veh, VPS4B / RFU, CREB1 / Fold change vs veh, CREB1 / RFU, DNAJC13 / Fold change vs veh, DNAJC13 / RFU, GNAQ / Fold change vs veh, GNAQ / RFU, CDK5R1 / Fold change vs veh, CDK5R1 / RFU, ZRANB3 / Fold change vs veh, ZRANB3 / RFU, CUL4A / Fold change vs veh, CUL4A / RFU, CCNY / Fold change vs veh, CCNY / RFU, UFL1 / Fold change vs veh, UFL1 / RFU, COG3 / Fold change vs veh, COG3 / RFU, DIAPH2 / Fold change vs veh, DIAPH2 / RFU, SKA2 / Fold change vs veh, SKA2 / RFU, AFF3 / Fold change vs veh, AFF3 / RFU, LMF1 / Fold change vs veh, LMF1 / RFU, IPO11 / Fold change vs veh, IPO11 / RFU, DFFB / Fold change vs veh, DFFB / RFU, FOXP1 / Fold change vs veh, FOXP1 / RFU, CARD8 / Fold change vs veh, CARD8 / RFU, STRN3 / Fold change vs veh, STRN3 / RFU, ADK / Fold change vs veh, ADK / RFU, RASSF2 / Fold change vs veh, RASSF2 / RFU, WIPF1 / Fold change vs veh, WIPF1 / RFU, LARP1B / Fold change vs veh, LARP1B / RFU, RASA1 / Fold change vs veh, RASA1 / RFU, RB1 / Fold change vs veh, RB1 / RFU, PPFIA1 / Fold change vs veh, PPFIA1 / RFU, MAT2A / Fold change vs veh, MAT2A / RFU, CCT5 / Fold change vs veh, CCT5 / RFU, WDR92 / Fold change vs veh, WDR92 / RFU, CUX1 / Fold change vs veh, CUX1 / RFU, TTC7A / Fold change vs veh, TTC7A / RFU, TMEM135 / Fold change vs veh, TMEM135 / RFU, DEPTOR / Fold change vs veh, DEPTOR / RFU, CPM / Fold change vs veh, CPM / RFU, DNAJB6 / Fold change vs veh, DNAJB6 / RFU, CACNA2D3 / Fold change vs veh, CACNA2D3 / RFU, DTX4 / Fold change vs veh, DTX4 / RFU, TFCP2 / Fold change vs veh, TFCP2 / RFU, GMCL1 /// GMCL1P1 / Fold change vs veh, GMCL1 /// GMCL1P1 / RFU, AEBP2 / Fold change vs veh, AEBP2 / RFU, SNHG1 /// SNORD22 /// SNORD25 /// SNORD26 /// SNORD27 /// SNORD28 /// SNORD29 /// SNORD31 / Fold change vs veh, SNHG1 /// SNORD22 /// SNORD25 /// SNORD26 /// SNORD27 /// SNORD28 /// SNORD29 /// SNORD31 / Fold change (Aza/veh), C12orf56 (ProbeSet 11735607_a_at) / Fold change (ACY-1035/veh), C12orf56 (ProbeSet 11735607_a_at) / Fold change (Aza/veh), FGFR1OP (ProbeSet 11751329_s_at) / Fold change (ACY-1035/veh), FGFR1OP (ProbeSet 11751329_s_at) / Fold change (Aza/veh), VPS36 (ProbeSet 11739960_a_at) / Fold change (ACY-1035/veh), VPS36 (ProbeSet 11739960_a_at) / RFU SYPL1 (11715823_x_at) / Fold change /veh SYPL1 (11715823_x_at) / RFU IGFBP7 (11715501_s_at) / Fold change /veh IGFBP7 (11715501_s_at) / RFU REEP3 (11722064_at) / Fold change /veh REEP3 (11722064_at) / RFU IGLL1 (11728026_x_at) / Fold change /veh IGLL1 (11728026_x_at): dose or concentration left out as unconfirmed
Details: ProbeSet 11745260_x_at; LIST B

## Nc1ccc(-c2cccs2)cc1NC(=O)c1ccc2c(c1)cc(C1CC1)n2CCN1CCOCC1 [ACY-1035]
  Fold change vs veh, SLC12A2: 0.87
